{"source": "paper PMC6385122", "about": "“Design and Synthesis of Arylamidine Derivatives as Serotonin/Norepinephrine Dual Reuptake Inhibitors” (Molecules, 2019)", "key": {"[1]": {"biological_target": "T1, 5-HT reuptake (5-HT transporter) (Rattus norvegicus, UniProt P31652)", "T1 construct": "from tissue; host or cells: Wistar rat brain (procerebrum; crude synaptosomal supernatant)", "T1 sequence (P31652 whole entry)": "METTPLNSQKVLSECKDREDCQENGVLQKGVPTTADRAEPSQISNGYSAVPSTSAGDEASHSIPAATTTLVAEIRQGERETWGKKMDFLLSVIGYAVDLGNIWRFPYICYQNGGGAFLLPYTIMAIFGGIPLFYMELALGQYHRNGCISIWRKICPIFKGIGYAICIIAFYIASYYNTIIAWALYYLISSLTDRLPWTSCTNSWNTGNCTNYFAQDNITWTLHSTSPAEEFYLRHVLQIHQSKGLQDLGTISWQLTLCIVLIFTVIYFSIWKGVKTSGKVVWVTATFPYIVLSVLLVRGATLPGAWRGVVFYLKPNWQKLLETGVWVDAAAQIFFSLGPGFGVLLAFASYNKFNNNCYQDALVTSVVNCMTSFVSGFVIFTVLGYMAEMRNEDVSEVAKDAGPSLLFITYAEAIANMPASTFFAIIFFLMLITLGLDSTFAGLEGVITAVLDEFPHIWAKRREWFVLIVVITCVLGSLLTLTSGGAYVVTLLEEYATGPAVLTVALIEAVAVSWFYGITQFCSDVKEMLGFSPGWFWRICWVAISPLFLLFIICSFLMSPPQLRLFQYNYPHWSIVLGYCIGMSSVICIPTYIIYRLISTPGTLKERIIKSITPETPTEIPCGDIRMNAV", "assay": "Inhibition of 5-HT reuptake in rat brain synaptosome (3H-5-HT uptake)", "format": "biochemical", "settings": "for inhibition at 10 µM: read-out: 5-HT reuptake percent inhibition", "experimental": "(§1) All the target compounds were evaluated for their inhibitory activity against the reuptake of 5-HT and NE at the cellular level. Rat brain tissue was used for the uptake test, which included ^3H-5-HT and ^3H-NE [15]. 1-[7,8-^3H]-Noradrenaline and 5-hydroxy-[^3H]-tryptamine trifluoroacetate were obtained from Amersham Corporation.\n(§2) Adult male Wistar rats were used. Animals were killed by decapitation and the whole brain, with the exception of the brainstem and cerebellum, was quickly removed. The procerebrum region was prepared, weighed, and homogenized in 10 volumes of ice-cold 0.32 mol/L sucrose solution using a glass homogenizer. The homogenate was centrifuged at 1000× g and 4 °C for 10 min. The supernatant was decanted and used for the uptake experiments. […] For each assay, three tubes were incubated with the vehicle (20 µL) at 0 °C in an ice bath. After incubation, the tubes were immediately filtered with a cell harvester. The fiberglass filter membrane was washed three times with ice-cold saline, placed in a scintillation vial, and counted in liquid scintillation cocktail (4 mL). Active uptake was the difference between the counts per minute at 37 and 0 °C. The percent inhibition at each drug concentration was the mean of three measurements."}, "[2]": {"biological_target": "T2, NE reuptake (NE transporter) (Rattus norvegicus, UniProt Q63380)", "T2 construct": "from tissue; host or cells: Wistar rat brain (procerebrum; crude synaptosomal supernatant)", "T2 sequence (Q63380 1-617)": "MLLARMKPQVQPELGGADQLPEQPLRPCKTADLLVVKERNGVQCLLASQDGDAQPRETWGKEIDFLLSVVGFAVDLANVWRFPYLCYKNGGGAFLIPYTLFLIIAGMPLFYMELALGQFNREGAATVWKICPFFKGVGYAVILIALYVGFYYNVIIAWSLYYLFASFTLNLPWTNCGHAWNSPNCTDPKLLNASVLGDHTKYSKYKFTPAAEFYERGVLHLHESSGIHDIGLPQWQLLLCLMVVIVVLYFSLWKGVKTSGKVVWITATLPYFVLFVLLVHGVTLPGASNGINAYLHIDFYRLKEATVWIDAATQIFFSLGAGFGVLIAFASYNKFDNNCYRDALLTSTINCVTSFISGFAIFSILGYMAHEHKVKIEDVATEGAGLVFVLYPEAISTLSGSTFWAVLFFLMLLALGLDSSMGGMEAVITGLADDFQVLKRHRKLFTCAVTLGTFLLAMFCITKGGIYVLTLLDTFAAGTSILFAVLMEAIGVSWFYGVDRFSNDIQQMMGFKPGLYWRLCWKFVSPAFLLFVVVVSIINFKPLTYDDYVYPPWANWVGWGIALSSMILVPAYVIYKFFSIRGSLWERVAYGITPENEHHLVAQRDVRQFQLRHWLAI", "assay": "Inhibition of NE reuptake in rat brain synaptosome (3H-NE uptake)", "format": "biochemical", "settings": "for inhibition at 10 µM: read-out: NE reuptake percent inhibition", "experimental": "as §1, §2"}, "rats": {"test_system": "rats", "assay": "Tail suspension test (TST) in rats", "format": "in vivo, rat", "settings": "male rats, 30 mg/kg PO; for Immobility Time: 60 min after administration; for Rate of Shorten Time (%): compared with the negative control group", "experimental": "Based on the in vitro results, compounds I-19, II-4, and II-5 were selected for the tail suspension test (TST) in rats. The TST has been used widely as a preclinical model for screening antidepressant activity, and it is sensitive to commercially available antidepressant drugs. In the assay, rats are suspended by tail and the time that the animal is immobile is recorded. The compounds were administered to male rats at a dose of 30 mg/kg (PO). […] In addition, the safety profile of compound II-5 was also explored with a preliminary acute toxicity test in mice at a single dose of 200 or 400 mg/kg (PO) (n = 6).\nFor two days before the formal experiment, the rats in each group were given doses orally once a day in the morning and in the afternoon. The rats were given doses orally once in each group in the formal experiment. After 60 min of administration, the rats were suspended head-down more than 50 cm from the ground with a 12-cm-long piece of insulating tape at a distance of 1 cm from the tail tip. The distance between adjacent rats was 15 cm. The immobility time of the rats was recorded. The rate of change in the immobility time of the rats in the test drug group and the positive control group was calculated and compared with the negative control group. Statistical analysis was performed using Prism 7.0 (GraphPad Software, San Diego, CA, USA)."}, "[3]": {"assay": "Preliminary acute toxicity test in mice", "format": "in vivo", "settings": "male, ICR, mouse, in vivo; mice, PO, 20 h", "experimental": "(§3) In the assay, rats are suspended by tail and the time that the animal is immobile is recorded. The compounds were administered to male rats at a dose of 30 mg/kg (PO).\n(§4) Male ICR mice (20–25 g) were used from Institute of Materia Medica, Chinese Academy of Medical Sciences, Beijing, China. Mice were randomly divided into two groups with six mice each. Mice were orally given II-5 with a single dose 200 and 400 mg/kg or vehicle control, respectively. The mouse death was monitored for 20 h after treatment."}, "mice": {"test_system": "mice", "assay": "Preliminary acute toxicity test in mice", "format": "in vivo", "settings": "male ICR mice, n = 6", "experimental": "as §3, §4"}}, "note": "Structures can show the parent of a compound that is named as a salt.", "data": [{"molecule": "COc1ccc(/C(=N\\Cc2ccccc2)N2CCNCC2)cc1.Cl", "note": "[Compound I-1, (E)-N-((4-Methoxyphenyl)(piperazin-1-yl)methylene)-1-phenylmethanamine hydrochloride]", "values": [{"measurement": "inhibition at 10 µM", "setting": "[1]", "value": 65, "unit": "%"}, {"measurement": "inhibition at 10 µM", "setting": "[2]", "value": 67, "unit": "%"}, {"measurement": "melting point", "value": "195 to 197", "unit": "°C"}]}, {"molecule": "N#Cc1cccc(/C(=N\\Cc2ccc(Cl)cc2)N2CCNCC2)c1", "note": "[Compound I-19, (E)-1-(4-Chlorophenyl)-N-((3-cyanophenyl)(piperazin-1-yl)methylene)methanaminehydrochloride]", "values": [{"measurement": "IC50", "setting": "[1]", "value": 0.83, "unit": "µM"}, {"measurement": "inhibition at 10 µM", "setting": "[1]", "value": 82, "unit": "%"}, {"measurement": "IC50", "setting": "[2]", "value": 0.56, "unit": "µM"}, {"measurement": "inhibition at 10 µM", "setting": "[2]", "value": 78, "unit": "%"}, {"measurement": "Immobility Time", "setting": "rats", "value": "34 ± 17", "unit": "s"}, {"measurement": "Rate of Shorten Time (%)", "setting": "rats", "value": 37.8, "unit": "%"}]}, {"molecule": "CNCC[C@H](Oc1cccc2ccccc12)c1cccs1", "note": "[Duloxetine, reference compound]", "values": [{"measurement": "Immobility Time", "setting": "rats", "value": "11 ± 5", "unit": "s"}, {"measurement": "Rate of Shorten Time (%)", "setting": "rats", "value": 79.0, "unit": "%"}]}, {"molecule": "Fc1ccccc1/C(=N\\Cc1cccc2ccccc12)N1CCNCC1", "note": "[II-4, (E)-N-((2-Fluorophenyl)(piperazin-1-yl)methylene)-1-(naphthalen-1-yl)methanaminehydrochloride]", "values": [{"measurement": "IC50", "setting": "[1]", "value": 0.13, "unit": "µM"}, {"measurement": "inhibition at 10 µM", "setting": "[1]", "value": 90, "unit": "%"}, {"measurement": "IC50", "setting": "[2]", "value": 0.88, "unit": "µM"}, {"measurement": "inhibition at 10 µM", "setting": "[2]", "value": 78, "unit": "%"}, {"measurement": "Immobility Time", "setting": "rats", "value": "33 ± 19", "unit": "s"}, {"measurement": "Rate of Shorten Time (%)", "setting": "rats", "value": 39.7, "unit": "%"}]}, {"molecule": "Clc1ccccc1/C(=N\\Cc1cccc2ccccc12)N1CCNCC1", "note": "[II-5, (E)-N-((2-Chlorophenyl)(piperazin-1-yl)methylene)-1-(naphthalen-1-yl)methanaminehydrochloride]", "values": [{"measurement": "IC50", "setting": "[1]", "value": 0.62, "unit": "µM"}, {"measurement": "inhibition at 10 µM", "setting": "[1]", "value": 81, "unit": "%"}, {"measurement": "IC50", "setting": "[2]", "value": 0.01, "unit": "µM"}, {"measurement": "inhibition at 10 µM", "setting": "[2]", "value": 92, "unit": "%"}, {"measurement": "Immobility Time", "setting": "rats", "value": "18 ± 7", "unit": "s"}, {"measurement": "Rate of Shorten Time (%)", "setting": "rats", "value": 67.8, "unit": "%"}, {"measurement": "LD50 at 20 h", "setting": "[3]", "value": "> 400", "unit": "mg/kg"}, {"measurement": "Survival at 20 h", "setting": "mice; single dose 200 mg/kg PO", "value": 100, "unit": "%"}, {"measurement": "Survival at 20 h", "setting": "mice; single dose 400 mg/kg PO", "value": 100, "unit": "%"}]}]}
